Molecules are shown by their SMILES.

This assay concerns the target T1, rat EP1 receptor (Rattus norvegicus, UniProt P70597).
T1 construct: expressed in transfected cells; host or cells: COS-1 cells, transient transfection with Lipofectamine 2000
T1 sequence (P70597 1-405): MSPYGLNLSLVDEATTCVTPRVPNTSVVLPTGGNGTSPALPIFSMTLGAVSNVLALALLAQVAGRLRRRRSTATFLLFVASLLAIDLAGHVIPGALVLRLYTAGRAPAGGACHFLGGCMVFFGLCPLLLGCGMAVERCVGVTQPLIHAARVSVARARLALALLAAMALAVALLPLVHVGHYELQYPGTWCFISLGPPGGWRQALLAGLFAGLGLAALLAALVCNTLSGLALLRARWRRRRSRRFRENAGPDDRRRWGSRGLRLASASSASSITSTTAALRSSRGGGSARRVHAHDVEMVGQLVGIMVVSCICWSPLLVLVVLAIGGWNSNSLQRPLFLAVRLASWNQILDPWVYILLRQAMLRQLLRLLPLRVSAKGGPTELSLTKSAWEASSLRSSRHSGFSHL
Briefly: Test for confirmation of EP1 receptor antagonism: inhibition of prostaglandin E2-induced increase in intracellular calcium concentration in rat EP1 receptor-expressing COS-1 cells. Type of assay: cell-based. Particulars: prostaglandin E2 10 nM, intracellular calcium fluorescence signal. As for the experimental part:
Test for Confirmation of EP1 Receptor Antagonism
(1) Preparation of Rat EP1 Expression Vector
Using Rat Kidney BD Marathon-Ready cDNA (Nippon Becton Dickinson Company, Ltd.) as a template, and using a forward primer shown in (SEQ ID NO:1) and a reverse primer shown in (SEQ ID NO:2), a first run of PCR was carried out using KOD-Plus-Ver 2.0 (Toyobo Co., Ltd.). Further, using this amplification product as a template, and using a forward primer shown in (SEQ ID NO:3) and a reverse primer shown in (SEQ ID NO:4), a second run of PCR was carried out in the same manner. The amplification product obtained by the second run of PCR was incorporated into a vector (pcDNA3.1 D/V5-His-TOPO (registered trademark), Invitrogen Japan K. K.). By a conventional method, the vector containing this amplification product was introduced into E. coli (One Shot TOP10 Competent Cells, Invitrogen Corporation) and transformed. This transformed E. coli was cultured in an LB agar medium for one day. After the culture, colonies were selected and cultured in an LB liquid medium containing 50 μg/mL of ampicillin. After the culture, the vector was purified using a QIAprep Spin Miniprep Kit (Qiagen K. K.). The base sequence of the insertion site of this vector (SEQ ID NO:5) was compared with the rat EP1 base sequence (Ptger1) registered as Accession No. NM_013100 in a publicly-known database (NCBI), and as a result, the base sequences completely matched except for a single base. Further, the amino acid sequence translated by the base sequence completely matched the amino acid sequence of the rat EP1 receptor registered as an NCBI Accession No. NP_037232. Therefore, it was confirmed that the cloned gene sequence was a base sequence of the rat EP1 receptor and the obtained amino acid sequence was that of the rat EP1 receptor. The pcDNA3.1 D/V5-His-TOPO (registered trademark) into which the nucleic acid shown in (SEQ ID NO:5) had been inserted was taken as a rat EP1-expressing vector.
(2) Preparation of Rat EP1 Receptor-Expressing Cells
COS-1 cells (Dainippon Sumitomo Pharma Co., Ltd.) were cultured until they reached confluence in an incubator at 37° C. under a 5% CO2 gas condition, using a D-MEM liquid medium (high glucose and L-glutamine contained, Invitrogen Corporation) to which a penicillin-streptomycin solution (Invitrogen Corporation, final concentration: 100 U/mL as benzylpenicillin; 100 μg/mL as streptomycin) as an antibiotic, MEM nonessential amino acids (Invitrogen Corporation, final concentration: 0.1 mM), and fetal calf serum (Sanko Junyaku Co., Ltd., final concentration: 10%) were added.
(2-2) COS-1 Cell Subculture
The cells that had reached confluence were stripped with 0.05% trypsin/0.53 mM EDTA•4Na (Invitrogen Japan K. K.) and resuspended in the liquid medium. The resuspended cells were diluted and cultured in the liquid medium at a spread ratio from 1:4 to 1:8.
(2-3) Preparation of Cells for Introduction of Rat EP1-Expressing Vector
The cells that had reached confluence were stripped with 0.05% trypsin/0.53 mM EDTA•4Na, and resuspended in a D-MEM liquid medium (high glucose and L-glutamine contained, Invitrogen Corporation) to which MEM nonessential amino acids (final concentration: 0.1 mM) and fetal calf serum (final concentration: 10%) were added. In each well of a Poly D-lysine-coated 96-well microplate (BD BioCoat (registered trademark), Nippon Becton Dickinson Company, Ltd.), this resuspended cell suspension culture was prepared to be 5×10^4 cells/well in 100 μL of the liquid medium, and 100 μL of the cell suspension was dispensed and seeded in each well. After seeding, the cells were cultured in an incubator at 37° C. under a 5% CO2 gas condition. Once the cells for introduction of a rat EP1-expressing vector were adhered (about 2 hours after seeding), introduction of the rat EP1-expressing vector was carried out in the following order.
(2-4) Introduction of Rat EP1-Expressing Vector […]
(In general: A change in cytosolic calcium serves as a functional read-out for many receptors and channels.)
For the compound `COc1cc2cc(-c3ccsc3)n(Cc3cccc(C(=O)NS(C)(=O)=O)n3)c2cc1F` [Example 1-5, 6-[6-fluoro-5-methoxy-2-(thiophen-3-yl)indol-1-ylmethyl]-N-(methanesulfonyl)pyridine-2-carboxamide], the IC50 – broadly, the concentration at which inhibition is half-maximal – came out at 49 nM.
Consider `CCS(=O)(=O)NC(=O)c1cccc(Cn2c(-c3ccccc3)cc3cc(OC)ccc32)n1` [Example 1-12, N-(ethanesulfonyl)-6-(5-methoxy-2-phenylindol-1-ylmethyl)pyridine-2-carboxamide], for which the concentration for half-maximal inhibition (IC50) was found to be 81 nM.
The result for `COc1ccc2c(c1)cc(-c1ccccc1)n2Cc1ccc(-c2nnn[nH]2)o1` [Example 2-2, 5-methoxy-2-phenyl-1-[5-(1H-1,2,3,4-tetrazol-5-yl)furan-2-ylmethyl]-1H-indole] reads 42 nM; that for `COc1cc2cc(-c3ccccc3)n(Cc3cccc(-c4nnn[nH]4)n3)c2cc1Cl` [Example 2-3, 6-chloro-5-methoxy-2-phenyl-1-[6-(1H-1,2,3,4-tetrazol-5-yl)pyridin-2-ylmethyl]-1H-indole], 67 nM.
The result for `COc1cc2cc(-c3ccsc3)n(Cc3cccc(-c4nnn[nH]4)n3)c2cc1F` [Example 2-4, 6-fluoro-5-methoxy-1-[6-(1H-1,2,3,4-tetrazol-5-yl)pyridin-2-ylmethyl]-2-(thiophen-3-yl)-1H-indole] reads 32 nM; that for `CCC(C)c1cc2cc(OC)c(Cl)cc2n1Cc1cccc(C(=O)NS(=O)(=O)CC)n1` (stereo not shown) [Example 4-2, 6-[2-(butan-2-yl)-6-chloro-5-methoxyindol-1-ylmethyl]-N-(ethanesulfonyl)pyridine-2-carboxamide], 31 nM.
The same measure for `CCS(=O)(=O)NC(=O)c1cccc(Cn2c(-c3cc(F)ccc3F)cc3cc(OC)ccc32)n1` [Example 4-5, 6-[2-(2,5-difluorophenyl)-5-methoxyindol-1-ylmethyl]-N-(ethanesulfonyl)pyridine-2-carboxamide]: 47 nM; for `CCC(C)c1cc2cc(OC)ccc2n1Cc1cccc(C(=O)NS(=O)(=O)CC)n1` (stereo not shown) [Example 4-10, 6-[2-(butan-2-yl)-5-methoxyindol-1-ylmethyl]-N-(ethanesulfonyl)pyridine-2-carboxamide]: 46 nM.
On to `CCCS(=O)(=O)NC(=O)c1cccc(Cn2c(-c3ccccc3)cc3cc(OC)ccc32)n1` [Example 4-12, 6-(5-methoxy-2-phenylindol-1-ylmethyl)-N-(propane-1-sulfonyl)pyridine-2-carboxamide], for which the IC50 amounted to 30 nM.
As for `COc1ccc2c(c1)cc(-c1ccccc1)n2Cc1cccc(C(=O)NS(=O)(=O)C(C)C)n1` [Example 4-13, 6-(5-methoxy-2-phenylindol-1-ylmethyl)-N-(propane-2-sulfonyl)pyridine-2-carboxamide], the IC50 was found to be 37 nM.
The same measure for `COc1ccc2c(c1)cc(-c1ccccc1)n2Cc1cccc(C(=O)NS(=O)(=O)C2CC2)n1` [Example 4-14, N-(cyclopropanesulfonyl)-6-(5-methoxy-2-phenylindol-1-ylmethyl)pyridine-2-carboxamide]: 63 nM; for `CCCS(=O)(=O)NC(=O)c1cccc(Cn2c(C(C)CC)cc3cc(OC)ccc32)n1` (stereo not shown) [Example 4-16, 6-[2-(butan-2-yl)-5-methoxyindol-1-ylmethyl]-N-(propane-1-sulfonyl)pyridine-2-carboxamide]: 43 nM.
On to `CCC(C)c1cc2cc(OC)ccc2n1Cc1cccc(C(=O)NS(=O)(=O)C(C)C)n1` (stereo not shown) [Example 4-17, 6-[2-(butan-2-yl)-5-methoxyindol-1-ylmethyl]-N-(propane-2-sulfonyl)pyridine-2-carboxamide], for which the IC50 is 49 nM.
The same measure for `CCC(C)c1cc2cc(OC)ccc2n1Cc1cccc(C(=O)NS(=O)(=O)C2CC2)n1` (stereo not shown) [Example 4-18, 6-[2-(butan-2-yl)-5-methoxyindol-1-ylmethyl]-N-(cyclopropanesulfonyl)pyridine-2-carboxamide]: 31 nM.
The same measure for `COc1cc2cc(-c3ccccc3)n(Cc3cccc(C(=O)NS(C)(=O)=O)n3)c2cc1F` [Example 4-19, 6-(6-fluoro-5-methoxy-2-phenylindol-1-ylmethyl)-N-(methanesulfonyl)pyridine-2-carboxamide]: 60 nM; for `CCS(=O)(=O)NC(=O)c1cccc(Cn2c(-c3ccccc3)cc3cc(OC)c(F)cc32)n1` [Example 4-20, N-(ethanesulfonyl)-6-(6-fluoro-5-methoxy-2-phenylindol-1-ylmethyl)pyridine-2-carboxamide]: 40 nM.
For the compound `CCCS(=O)(=O)NC(=O)c1cccc(Cn2c(-c3ccccc3)cc3cc(OC)c(F)cc32)n1` [Example 4-22, 6-(6-fluoro-5-methoxy-2-phenylindol-1-ylmethyl)-N-(propane-1-sulfonyl)pyridine-2-carboxamide], the half-maximal inhibitory concentration (IC50) was found to be 59 nM.
The same measure for `COc1cc2cc(-c3ccccc3)n(Cc3cccc(C(=O)NS(=O)(=O)C4CC4)n3)c2cc1F` [Example 4-23, N-(cyclopropanesulfonyl)-6-(6-fluoro-5-methoxy-2-phenylindol-1-ylmethyl)pyridine-2-carboxamide]: 28 nM.
The same measure for `CCC(C)c1cc2cc(OC)ccc2n1Cc1cccc(-c2nnn[nH]2)n1` (stereo not shown) [Example 5-1, 2-(butan-2-yl)-5-methoxy-1-[6-(1H-1,2,3,4-tetrazol-5-yl)pyridin-2-ylmethyl]-1H-indole]: 23 nM.
In the case of `COc1cc2cc(-c3ccccc3)n(Cc3cccc(-c4nnn[nH]4)n3)c2cc1F` [Example 5-3, 6-fluoro-5-methoxy-2-phenyl-1-[6-(1H-1,2,3,4-tetrazol-5-yl)pyridin-2-ylmethyl]-1H-indole], the IC50 worked out at 31 nM.
The same measure for `COc1cc2cc(-c3ccoc3)n(Cc3cccc(-c4nnn[nH]4)n3)c2cc1Cl` [Example 5-4, 6-chloro-2-(furan-3-yl)-5-methoxy-1-[6-(1H-1,2,3,4-tetrazol-5-yl)pyridin-2-ylmethyl]-1H-indole]: 35 nM.
`COc1cc2cc(C3(C)CC3)n(Cc3cccc(-c4nnn[nH]4)n3)c2cc1Cl` [Example 5-6, 6-chloro-5-methoxy-2-(1-methylcyclopropyl)-1-[6-(1H-1,2,3,4-tetrazol-5-yl)pyridin-2-ylmethyl]-1H-indole]: the IC50 came out at 33 nM.
The same measure for `COc1ccc2c(c1)cc(C1(C)CC1)n2Cc1ccc(-c2nnn[nH]2)o1` [Example 5-7, 5-methoxy-2-(1-methylcyclopropyl)-1-[5-(1H-1,2,3,4-tetrazol-5-yl)furan-2-ylmethyl]-1H-indole]: 64 nM; for `COc1cc2cc(-c3ccccc3)n(Cc3cccc(-c4noc(=O)[nH]4)n3)c2cc1F` [Example 6-6, 3-[6-(6-fluoro-5-methoxy-2-phenylindol-1-ylmethyl)pyridin-2-yl]-4,5-dihydro-1,2,4-oxadiazol-5-one]: 22 nM; for `COc1cc2cc(-c3ccccc3)n(Cc3cccc(C(=O)NC#N)n3)c2cc1F` [Example 8-7, N-cyano-6-(6-fluoro-5-methoxy-2-phenylindol-1-ylmethyl)pyridine-2-carboxamide]: 97 nM.
